Measured values as given in PubChem BioAssay (NCI).
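Protocol summary: plate cells (96-well), add compound at 5 concentrations, incubate 48 h, interpolate endpoints linearly. GI50: concentration for 50% inhibition of growth. TGI marks complete inhibition of growth.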

Experiments:
Assay in all cases: NCI-60 cell line screen, 48 h
CAKI-1 renal = system: CAKI-1 renal
COLO 205 colon = system: COLO 205 colon
HL-60(TB) leukemia = system: HL-60(TB) leukemia
HOP-92 NSCLC = system: HOP-92 NSCLC
KM12 colon = system: KM12 colon
NCI-H460 lung = system: NCI-H460 lung
SF-539 CNS = system: SF-539 CNS
TK-10 renal = system: TK-10 renal
LOX IMVI melanoma = system: LOX IMVI melanoma
DU-145 prostate = system: DU-145 prostate

SMILES | TGI (CAKI-1 renal) | TGI (COLO 205 colon) | TGI (HL-60(TB) leukemia) | TGI (HOP-92 NSCLC) | TGI (KM12 colon) | TGI (NCI-H460 lung) | TGI (SF-539 CNS) | TGI (TK-10 renal) | TGI (LOX IMVI melanoma) | GI50 (CAKI-1 renal) | GI50 (COLO 205 colon) | GI50 (DU-145 prostate) | TGI (DU-145 prostate) | GI50 (HOP-92 NSCLC) | GI50 (KM12 colon) | GI50 (NCI-H460 lung) | GI50 (SF-539 CNS) | GI50 (TK-10 renal) | GI50 (LOX IMVI melanoma)
CCCN(CCC)C(=O)c1nc(N)nc(-c2ccc(OC)cc2)c1-c1ccc(OC)cc1 | > 100 µM | > 100 µM | > 100 µM | > 100 µM | > 100 µM | > 100 µM | > 100 µM | > 100 µM |  |  |  |  |  |  |  |  |  |  | 
O=C1CNC(=O)c2[nH]cnc2N1 |  | > 100 µM | > 100 µM |  | > 100 µM | > 100 µM | > 100 µM | > 100 µM | > 100 µM |  |  |  |  |  |  |  |  |  | 
CCOc1ccc(NCC2CC/C(=C\c3ccccc3OC)C2=O)cc1 (stereo not drawn) | 25.4 µM | 5.59 µM | > 23.7 µM | 34 µM | 9.1 µM |  | 23.9 µM | 26.7 µM | 18.6 µM |  |  |  |  |  |  |  |  |  | 
C/C(CC(=O)Nc1ccccc1C)=N/NS(=O)(=O)c1ccc(C)cc1 |  | > 100 µM | > 100 µM | > 100 µM | > 100 µM | > 100 µM | > 100 µM | > 100 µM | > 100 µM |  |  |  |  |  |  |  |  |  | 
Cc1ccc(S(=O)(=O)OC(COC(=O)c2ccccc2)C(OS(=O)(=O)c2ccc(C)cc2)C(OS(=O)(=O)c2ccc(C)cc2)C(COC(=O)c2ccccc2)OS(=O)(=O)c2ccc(C)cc2)cc1 (stereo not drawn) | > 100 µM | > 100 µM | > 100 µM | > 100 µM | > 100 µM | > 100 µM | > 100 µM | > 100 µM | > 100 µM |  |  |  |  |  |  |  |  |  | 
CC(C(=O)c1ccccc1)C1(O)C(=O)Nc2ccc(Cl)cc21 (stereo not drawn) | > 100 µM | > 100 µM |  | > 100 µM | > 100 µM | > 100 µM | > 100 µM | > 100 µM | > 100 µM |  |  |  |  |  |  |  |  |  | 
O=c1oc2cc(OC/C(=N/O)c3ccc(F)cc3)ccc2c2ccccc12 | 33.4 µM | 61.4 µM |  | 52.8 µM | 53.5 µM | 35.2 µM | 36.4 µM | 81.2 µM |  | 13.1 µM | 25.3 µM | 18.5 µM | 34.7 µM | 23.6 µM | 21.2 µM | 16.9 µM | 20.1 µM | 27 µM | 
COC(=O)C1CC(OC(C)=O)C=C2C(=O)CCC21 (stereo not drawn) | 55.8 µM | 34.4 µM | 29.5 µM |  | 31.6 µM | 35.2 µM | 50.6 µM | 77.5 µM |  |  |  |  |  |  |  |  |  |  | 
CCOC(=O)C1=C(C)N(NC(N)=O)C2(N)N(NC(N)=O)C(C)=C(C(=O)OCC)C12C(=O)OCC (stereo not drawn) | > 100 µM |  |  |  | > 100 µM | > 100 µM | > 100 µM |  | > 100 µM |  |  |  |  |  |  |  |  |  | 
COC1CCC(OC)C(C2(C3CC(OC)CCC3OC)OC(=O)c3ccccc32)C1 (stereo not drawn) | > 100 µM | > 100 µM | 45.1 µM | > 100 µM | > 100 µM | > 100 µM | > 100 µM | > 100 µM |  |  |  |  |  |  |  |  |  |  | 
Cc1cc(C)c(C(=O)O)c(SSc2cc(C)cc(C)c2C(=O)O)c1 | > 100 µM | > 100 µM | > 100 µM | > 100 µM | > 100 µM | > 100 µM | > 100 µM | > 100 µM | > 100 µM |  |  |  |  |  |  |  |  |  | 
O=C(Nc1ccccc1-c1nn(CN2CCNCC2)c(=S)n(CN2CCNCC2)c1=O)C(F)(F)F | 55.2 µM | 31 µM | 43.2 µM | 45.8 µM | 40.7 µM | 53.3 µM | 35.3 µM | 61.1 µM | 36.5 µM |  |  |  |  |  |  |  |  |  | 
COC(=O)C(=O)C(C(=O)C(=O)Nc1ccccc1OC)c1nc2ccc([N+](=O)[O-])cc2[nH]c1=O (stereo not drawn) | > 100 µM |  | > 100 µM | > 100 µM | > 100 µM | > 100 µM | > 100 µM | > 100 µM | > 100 µM |  |  |  |  |  |  |  |  |  | 
COc1ccc2oc(-c3ccc(OC)c(OC)c3OC)cc(=O)c2c1 | > 100 µM | > 100 µM | 55 µM | > 100 µM |  |  | > 100 µM | > 100 µM | > 100 µM |  |  |  |  |  |  |  |  |  | 
O=C1C=Cc2c1ccc1ccccc21 | 33 µM | > 100 µM |  |  | 77.5 µM | > 100 µM |  | 54.9 µM | 61.8 µM | 11.1 µM | 30.9 µM | 48.8 µM | > 100 µM |  | 24.5 µM | 35.7 µM |  | 15.9 µM | 22 µM
NCCNC(=O)c1cccc2cc3ccccc3nc12 | > 23.4 µM |  |  | > 100 µM | 20.4 µM |  | 16.9 µM | 21.2 µM | 2.76 µM |  |  |  |  |  |  |  |  |  | 
C=CCC1(C(=O)OC(C)(C)C)C(OC)=C(C(=O)OC(C)(C)C)C2C1C(C(=O)OC(C)(C)C)=C(OC)C2(CC=C)C(=O)OC(C)(C)C (stereo not drawn) |  | > 100 µM | > 100 µM | > 100 µM | > 100 µM |  | > 100 µM | > 100 µM |  |  |  |  |  |  |  |  |  |  | 
